Assays:
A549 [1] = test: Antiproliferative activity against human A549 cells incubated for 72 hrs by MTT assay; assay type: functional, cell-based; details: A549, 72 h
MCF7 [2] = test: Antiproliferative activity against human MCF7 cells incubated for 48 hrs by MTT assay; assay type: functional, cell-based; details: MCF7, 48 h
SW480 = test: Antiproliferative activity against human SW480 cells incubated for 48 hrs by MTT assay; assay type: functional, cell-based; details: SW480, 48 h
SMMC-7721 = test: Antiproliferative activity against human SMMC-7721 cells incubated for 48 hrs by MTT assay; assay type: functional, cell-based; details: SMMC-7721, 48 h
HL-60 = test: Antiproliferative activity against human HL-60 cells incubated for 48 hrs by MTT assay; assay type: functional, cell-based; details: HL-60, 48 h
K562 [3] = test: Cytotoxicity against human K562 cells incubated for 72 hrs by CCK8 assay; assay type: functional, cell-based; details: K562, 72 h
K562/Adr [4] = test: Cytotoxicity against human K562/ADR cells incubated for 72 hrs by CCK8 assay; assay type: functional, cell-based
[5] = Resistance index, ratio of IC50 for human K562/ADR cells to IC50 for human K562 cells; assay type: functional
K562 [6] = test: Potency index, ratio of doxorubicin IC50 to compound IC50 for human K562 cells; assay type: functional
K562/Adr [7] = test: Potency index, ratio of doxorubicin IC50 to compound IC50 for human K562/ADR cells; assay type: functional
K562/A02 = test: Cytotoxicity against human K562/A02 cells by SRB assay; assay type: functional, cell-based
MCF7 [8] = test: Antiproliferative activity against human MCF7 cells incubated for 72 hrs by MTT assay; assay type: functional, cell-based; details: MCF7, 72 h
SK-OV-3 = test: Antiproliferative activity against human SK-OV-3 cells incubated for 72 hrs by MTT assay; assay type: functional, cell-based; details: SK-OV-3, 72 h
HepG2 [9] = test: Antiproliferative activity against human HepG2 cells incubated for 72 hrs by MTT assay; assay type: functional, cell-based; details: HepG2, 72 h
HeLa [10] = test: Antiproliferative activity against human HeLa cells incubated for 72 hrs by MTT assay; assay type: functional, cell-based
CT26 = test: Antiproliferative activity against […] cells incubated for 72 hrs by MTT assay; assay type: functional, cell-based; details: Mus musculus, CT26, 72 h
B16-F10 = test: Antiproliferative activity against mouse B16/F10 cells incubated for 72 hrs by MTT assay; assay type: functional, cell-based; details: B16-F10, 72 h
HeLa [11] = test: Antiproliferative activity against human HeLa cells incubated for 48 hrs by MTT assay; assay type: functional, cell-based
A549 [12] = test: Antiproliferative activity against human A549 cells incubated for 48 hrs by MTT assay; assay type: functional, cell-based; details: A549, 48 h
BGC-823 = test: Antiproliferative activity against human BGC-823 cells incubated for 48 hrs by MTT assay; assay type: functional, cell-based; details: BGC-823, 48 h
Huh-7 = test: Antiproliferative activity against human Huh7 cells incubated for 48 hrs by MTT assay; assay type: functional, cell-based; details: Huh-7, 48 h
HeLa [13] = test: Antiproliferative activity against human HeLa cells by MTT assay; assay type: functional, cell-based
A549 [14] = test: Antiproliferative activity against human A549 cells incubated for 24 hrs by MTT assay; assay type: functional, cell-based; details: A549, 24 h
MCF7 [15] = test: Antiproliferative activity against human MCF7 cells incubated for 24 hrs by MTT assay; assay type: functional, cell-based; details: MCF7, 24 h
HepG2 [16] = test: Antiproliferative activity against human HepG2 cells incubated for 24 hrs by MTT assay; assay type: functional, cell-based; details: HepG2, 24 h
HeLa [17] = test: Antiproliferative activity against human HeLa cells incubated for 24 hrs by MTT assay; assay type: functional, cell-based
L02 [18] = test: Cytotoxicity against human L02 cells; assay type: cell-based
HepG2 [19] = test: Antiproliferative activity against human HepG2 cells incubated for 48 hrs by MTT assay; assay type: functional, cell-based; details: HepG2, 48 h
L02 [20] = test: Cytotoxicity against human HL7702 cells incubated for 48 hrs by MTT assay; assay type: cell-based; details: L02, 48 h
Calu-1 = test: Antiproliferative activity against human Calu-1 cells incubated for 24 hrs by MTT assay; assay type: functional, cell-based; details: Calu-1, 24 h
Vero = test: Cytotoxicity against African green monkey Vero cells; assay type: cell-based; details: Chlorocebus sabaeus
HepG2 [21] = test: Antiproliferative activity against human HepG2 cells incubated for 3 days by MTT assay; assay type: functional, cell-based; details: HepG2, 72 h
HCT-116 = test: Antiproliferative activity against human HCT116 cells incubated for 3 days by MTT assay; assay type: functional, cell-based; details: HCT-116, 72 h
A549 [22] = test: Antiproliferative activity against human A549 cells incubated for 3 days by MTT assay; assay type: functional, cell-based; details: A549, 72 h

CCCC(=O)OC[C@H]1O[C@H](OCc2cn([C@@H]3c4cc5c(cc4[C@@H](c4cc(OC)c(O)c(OC)c4)[C@H]4C(=O)OC[C@@H]43)OCO5)nn2)[C@H](OC(=O)CCC)[C@@H](OC(=O)CCC)[C@H]1OC(=O)CCC
IC50 (A549 [1]): 490 nM
IC50 (MCF7 [2]): 490 nM
IC50 (SW480): 490 nM
IC50 (SMMC-7721): 490 nM
IC50 (HL-60): 490 nM

COc1cc([C@@H]2c3cc4c(cc3[C@@H](OC(=O)/C=C/c3ccco3)[C@H]3COC(=O)[C@H]23)OCO4)cc(OC)c1OC
IC50 (K562 [3]): 11 nM
IC50 (K562/Adr [4]): 11 nM
Ratio IC50 [5]: 1.1
Ratio IC50 (K562 [6]): 2.2
Ratio IC50 (K562/Adr [7]): 2.2

COc1ccc(/C=C/C(=O)O[C@@H]2c3cc4c(cc3[C@@H](c3cc(OC)c(OC)c(OC)c3)[C@H]3C(=O)OC[C@@H]32)OCO4)cc1OC
IC50 (K562 [3]): 11 nM
IC50 (K562/Adr [4]): 11 nM
Ratio IC50 [5]: 1.1
Ratio IC50 (K562 [6]): 2.2
Ratio IC50 (K562/Adr [7]): 2.2

COc1cccc2c1C(=O)c1c(O)c3c(c(O)c1C2=O)C[C@@](O)(C(=O)CO)C[C@@H]3O[C@H]1C[C@H](N)[C@H](O)[C@H](C)O1 [DOXORUBICIN]
IC50 (K562/Adr [4]): 220 nM
GI50 (K562/A02): 14300 nM

COc1ccc(-c2coc3cc(OCC(=O)O[C@@H]4c5cc6c(cc5[C@@H](c5cc(OC)c(OC)c(OC)c5)[C@H]5C(=O)OC[C@@H]54)OCO6)ccc3c2=O)cc1
IC50 (MCF7 [8]): 213 nM
IC50 (A549 [1]): 213 nM
IC50 (SK-OV-3): 213 nM
IC50 (HepG2 [9]): 213 nM
IC50 (HeLa [10]): 213 nM
IC50 (CT26): 213 nM
IC50 (B16-F10): 213 nM

COc1cc([C@@H]2c3cc4c(cc3[C@@H](Nc3ncccc3C)[C@H]3COC(=O)[C@H]23)OCO4)cc(OC)c1O
IC50 (HeLa [11]): 60 nM
IC50 (A549 [12]): 60 nM
IC50 (MCF7 [2]): 60 nM
IC50 (BGC-823): 60 nM
IC50 (Huh-7): 60 nM

COc1ccc2c(c1)cc(/C=N/[C@@H]1c3cc4c(cc3[C@@H](c3cc(OC)c(OC)c(OC)c3)[C@H]3C(=O)OC[C@@H]31)OCO4)n2Cc1ccccc1F
IC50 (HeLa [13]): 650 nM

COc1cc([C@@H]2c3cc4c(cc3[C@H](OC(=O)CSc3nnc(-c5ccc(Br)cc5)o3)[C@H]3COC(=O)[C@H]23)OCO4)cc(OC)c1OC
IC50 (A549 [14]): 2540 nM
IC50 (MCF7 [15]): 2540 nM
IC50 (HepG2 [16]): 2540 nM
IC50 (HeLa [17]): 2540 nM
IC50 (L02 [18]): 79600 nM

COc1cc([C@@H]2c3cc4c(cc3[C@@H](OC(=O)/C=C/c3ccccc3)[C@H]3COC(=O)[C@H]23)OCO4)cc(OC)c1OC
IC50 (K562 [3]): 11 nM
IC50 (K562/Adr [4]): 11 nM
Ratio IC50 [5]: 1.1
Ratio IC50 (K562 [6]): 2.2
Ratio IC50 (K562/Adr [7]): 2.2

COc1cc([C@@H]2c3cc4c(cc3[C@@H](Sc3ncnc5nc[nH]c35)[C@H]3COC(=O)[C@H]23)OCO4)cc(OC)c1OC
IC50 (A549 [12]): 300 nM
IC50 (HepG2 [19]): 300 nM
IC50 (BGC-823): 300 nM
IC50 (L02 [20]): 300 nM

COc1ccc(/C=C\c2cc(OC)c(OC)c(OC)c2)cc1O [COMBRETASTATIN A4]
IC50 (A549 [14]): 2780 nM
IC50 (MCF7 [15]): 3450 nM
IC50 (HepG2 [16]): 3450 nM
IC50 (HeLa [17]): 2780 nM
IC50 (Calu-1): 2780 nM
IC50 (Vero): 2560 nM
IC50 (L02 [18]): 4230 nM

COc1ccc(-c2coc3cc(OCCCC(=O)O[C@@H]4c5cc6c(cc5[C@@H](c5cc(OC)c(OC)c(OC)c5)[C@H]5C(=O)OC[C@@H]54)OCO6)ccc3c2=O)cc1
IC50 (MCF7 [8]): 213 nM
IC50 (A549 [1]): 213 nM
IC50 (SK-OV-3): 213 nM
IC50 (HepG2 [9]): 213 nM
IC50 (HeLa [10]): 213 nM
IC50 (CT26): 213 nM
IC50 (B16-F10): 213 nM

COc1cc([C@@H]2c3cc4c(cc3[C@@H](NC(=S)NC(=O)c3ccccc3Br)[C@H]3COC(=O)[C@H]23)OCO4)cc(OC)c1OC
IC50 (HepG2 [21]): 100 nM
IC50 (HCT-116): 100 nM
IC50 (A549 [22]): 100 nM

COc1cc([C@@H]2c3cc4c(cc3[C@@H](Nc3ncccc3C)[C@H]3COC(=O)[C@H]23)OCO4)cc(OC)c1OC
IC50 (HeLa [11]): 60 nM
IC50 (A549 [12]): 60 nM
IC50 (MCF7 [2]): 60 nM
IC50 (BGC-823): 60 nM
IC50 (Huh-7): 60 nM

From ChEMBL document CHEMBL4818987, “Recent advances of podophyllotoxin/epipodophyllotoxin hybrids in anticancer activity, mode of action, and structure-activity relationship: An update (2010-2020)” (Eur J Med Chem, 2020)
